The target of this assay is DNA damage-binding protein 1/Protein cereblon (Homo sapiens, UniProt Q96SW2). As to the method:
The binding potency was determined using H-TRF assay technology (Perkin Elmer). Compounds were serially diluted in DMSO and 0.2 μL volume was transferred to white 384-well plate.

DNA damage-binding protein 1/Protein cereblon, sequence (Q16531 whole entry): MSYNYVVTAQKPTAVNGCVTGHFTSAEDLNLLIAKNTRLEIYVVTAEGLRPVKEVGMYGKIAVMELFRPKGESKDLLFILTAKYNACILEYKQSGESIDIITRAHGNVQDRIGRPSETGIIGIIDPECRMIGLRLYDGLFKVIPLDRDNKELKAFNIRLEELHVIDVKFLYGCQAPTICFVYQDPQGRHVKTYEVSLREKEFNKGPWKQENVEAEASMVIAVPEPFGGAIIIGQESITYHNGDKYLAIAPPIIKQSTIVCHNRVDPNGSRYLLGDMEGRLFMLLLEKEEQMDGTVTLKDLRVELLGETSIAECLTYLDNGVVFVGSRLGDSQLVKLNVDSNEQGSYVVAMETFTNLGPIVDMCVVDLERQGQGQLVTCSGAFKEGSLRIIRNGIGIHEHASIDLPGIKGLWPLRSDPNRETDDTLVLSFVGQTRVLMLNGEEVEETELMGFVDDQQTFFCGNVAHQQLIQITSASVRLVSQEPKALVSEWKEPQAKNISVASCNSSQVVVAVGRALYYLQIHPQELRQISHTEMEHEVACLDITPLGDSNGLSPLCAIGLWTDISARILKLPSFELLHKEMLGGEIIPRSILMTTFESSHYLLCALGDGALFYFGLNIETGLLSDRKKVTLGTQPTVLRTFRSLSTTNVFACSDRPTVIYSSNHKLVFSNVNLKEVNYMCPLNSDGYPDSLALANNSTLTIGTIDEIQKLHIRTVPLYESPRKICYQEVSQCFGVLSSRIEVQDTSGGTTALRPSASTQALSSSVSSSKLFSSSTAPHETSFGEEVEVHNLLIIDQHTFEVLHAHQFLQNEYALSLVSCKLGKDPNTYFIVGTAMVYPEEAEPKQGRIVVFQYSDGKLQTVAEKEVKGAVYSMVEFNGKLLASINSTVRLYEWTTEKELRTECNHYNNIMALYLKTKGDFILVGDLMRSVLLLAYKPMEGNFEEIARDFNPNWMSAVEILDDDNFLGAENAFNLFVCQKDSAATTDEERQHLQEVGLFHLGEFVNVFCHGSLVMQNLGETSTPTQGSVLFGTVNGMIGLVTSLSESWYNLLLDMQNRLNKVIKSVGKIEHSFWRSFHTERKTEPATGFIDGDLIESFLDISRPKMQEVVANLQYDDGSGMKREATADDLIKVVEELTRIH
DNA damage-binding protein 1/Protein cereblon, sequence (Q96SW2 whole entry): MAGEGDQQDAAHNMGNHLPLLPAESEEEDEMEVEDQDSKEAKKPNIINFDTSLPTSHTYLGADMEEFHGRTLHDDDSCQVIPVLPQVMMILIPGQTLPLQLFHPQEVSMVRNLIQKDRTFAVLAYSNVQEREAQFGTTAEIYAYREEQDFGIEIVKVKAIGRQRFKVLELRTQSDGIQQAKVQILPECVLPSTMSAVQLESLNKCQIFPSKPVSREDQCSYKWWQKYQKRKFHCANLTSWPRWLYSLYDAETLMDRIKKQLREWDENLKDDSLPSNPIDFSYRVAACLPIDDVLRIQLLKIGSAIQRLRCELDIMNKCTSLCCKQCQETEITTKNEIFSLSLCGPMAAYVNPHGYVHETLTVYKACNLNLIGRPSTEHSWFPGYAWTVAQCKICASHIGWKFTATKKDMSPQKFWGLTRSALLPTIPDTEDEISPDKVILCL

For `C[C@@H]1Cc2c([nH]c3ccccc23)[C@@H](c2cnc(N3CCC(N4CCN(c5ccc(NC6CCC(=O)NC6=O)cc5F)CC4)CC3)nc2)N1CC(C)(C)F` (stereo partly specified) [US20260007681, Compound A2], the IC50 (commonly the concentration needed to halve the response being measured) lay within 500 to 5000 nM.

Source of the values: BindingDB's records for patent US20260007681 (University Of Michigan, 2026).
